ChEMBL document CHEMBL1150996, “Syntheses and exploration of new biological activities in ethyl 6/7-substituted and 6, 7-disubstituted quinolin-4-one-3-carboxylates” (1996)
Values after ≈ are worked out from the molar mass of the structure shown. Active and inactive are the calls of the source. The calls are words filed in the database; no cut-off is given here.

Tests used:
Plasmodium yoelii [1] = test: (§1) Compound was evaluated for uM; set-up: concentration or dose not given beside the values; settings: concentration not given here
Trichophyton benhamiae = test: In vitro minimum inhibitory concentration against Trichophyton mentagrophytes; type: functional, Arthroderma benhamiae
Plasmodium yoelii [2] = test: (§2) Compound was evaluated for uM concentration.; settings: concentration not given here
Plasmodium yoelii [3] = test: as §1; settings: concentration not given here
Plasmodium yoelii [4] = test: as §2; settings: concentration not given here; remark: listed apart in the source
Plasmodium yoelii [5] = test: Compound was evaluated for anti-heme polymerase activity in intact erythrocytes infected with drug resistant Plasmodium yoelii at 1.0 uM concentration.; type: cell-based
Plasmodium yoelii [6] = test: Compound was evaluated for uM: No effect

Row | inhibition (Plasmodium yoelii [1]) | MIC (Trichophyton benhamiae) | inhibition (Plasmodium yoelii [3]) | inhibition (Plasmodium yoelii [6]) | SMILES | inhibition (Plasmodium yoelii [2]) | inhibition (Plasmodium yoelii [4]) | inhibition (Plasmodium yoelii [5])
1 | 88% | 50 µg/mL (≈ 106 µM) |  |  | CCOC(=O)c1cnc2ccc(C3(CCC(=O)NCCC(C)C)CCC(=O)NC3=O)cc2c1O (configuration not stated) |  |  | 
2 | 69% | 50 µg/mL (≈ 160 µM) |  |  | CCOC(=O)c1cnc2cc(C3=NNC(=O)CC3)ccc2c1O |  |  | 
3 | 82% | 50 µg/mL (≈ 104 µM) |  |  | CCOC(=O)c1cnc2ccc(C3(CCC(=O)CCc4ccoc4)CCC(=O)NC3=O)cc2c1O (configuration not stated) |  |  | 
4 | 86% | 50 µg/mL (≈ 91.1 µM) |  |  | CCOC(=O)c1cnc2ccc(C3(CCC(=O)CCc4ccc(OC)c(OC)c4)CCC(=O)NC3=O)cc2c1O (configuration not stated) |  |  | 
5 | 85% | 50 µg/mL (≈ 110 µM) |  |  | CCCCNC(=O)CCC1(c2ccc3ncc(C(=O)OCC)c(O)c3c2)CCC(=O)NC1=O (configuration not stated) |  |  | 

The remaining lines, values behind:

Row | SMILES | inhibition (Plasmodium yoelii [1]) | MIC (Trichophyton benhamiae) | inhibition (Plasmodium yoelii [3]) | inhibition (Plasmodium yoelii [6]) | inhibition (Plasmodium yoelii [2]) | inhibition (Plasmodium yoelii [4]) | inhibition (Plasmodium yoelii [5])
6 | CCN(CC)CCCC(C)Nc1ccnc2cc(Cl)ccc12 (configuration not stated) [CHLOROQUINE] |  | 50 µg/mL (≈ 156 µM) | 46% |  | 47% |  | 
7 | CCOC(=O)c1cnc2ccc(C3(CCC(=O)NC(C)CC)CCC(=O)NC3=O)cc2c1O (configuration not stated) | 71% | 50 µg/mL (≈ 110 µM) |  |  | 42% | 17% | 68%
8 | CCOC(=O)c1cnc2cc(C3CCC(=O)O3)ccc2c1O (configuration not stated) | 46% | 50 µg/mL (≈ 166 µM) |  |  |  |  | 
9 | CCOC(=O)c1cnc2ccc(C3(CCC(=O)OC)CCC(=O)NC3=O)cc2c1O (configuration not stated) | 66% | 50 µg/mL (≈ 121 µM) |  |  | 40% | 11% | 62%
10 | CCOC(=O)c1cnc2cc(CO)c(O)cc2c1O |  | 50 µg/mL (≈ 190 µM) |  | inactive |  |  | 
